Source: patent EP1247803A2, “Indolinone compounds suitable for modulation of protein kinases” (Sugen, Inc., priority 1996, dated 1998)

What was measured:
[1] = biological target: T1, EGFR (Homo sapiens, UniProt P00533); assay: EGFR ELISA assay (in vitro kinase activity, EGFR captured from A431 cell lysate); type: biochemical; set-up: concentration or dose not given beside the values
T1 construct: Add 7 ug A431 cell lysate per well (EGFR source); endogenous in cells; host or cells: A431
Procedure, shortened: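 Receptor autophosphorylation was read by ELISA: anti-phosphotyrosine serum and an HRP-linked secondary with ABTS substrate, absorbance at 410 nm (reference 630 nm). The reaction ran 5 min with 3 µM ATP and 5 mM MnCl2 and was quenched by 20 mM EDTA. Compounds were first incubated 30 min with antibody-captured EGFR from A431 cell lysate.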

[2] = system: MET; assay: MET biochemical kinase assay; set-up: species or system human; concentration or dose not given beside the values
Procedure, shortened: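 Lysate-derived MET, or chimeric receptors, is immobilised on plates through an antibody to the human MET cytoplasmic region. Compounds are added along with kinase buffer supplying ATP and divalent metal ions, and receptor autophosphorylation is quantified by anti-phosphotyrosine ELISA.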

T1 sequence (P00533 25-1210): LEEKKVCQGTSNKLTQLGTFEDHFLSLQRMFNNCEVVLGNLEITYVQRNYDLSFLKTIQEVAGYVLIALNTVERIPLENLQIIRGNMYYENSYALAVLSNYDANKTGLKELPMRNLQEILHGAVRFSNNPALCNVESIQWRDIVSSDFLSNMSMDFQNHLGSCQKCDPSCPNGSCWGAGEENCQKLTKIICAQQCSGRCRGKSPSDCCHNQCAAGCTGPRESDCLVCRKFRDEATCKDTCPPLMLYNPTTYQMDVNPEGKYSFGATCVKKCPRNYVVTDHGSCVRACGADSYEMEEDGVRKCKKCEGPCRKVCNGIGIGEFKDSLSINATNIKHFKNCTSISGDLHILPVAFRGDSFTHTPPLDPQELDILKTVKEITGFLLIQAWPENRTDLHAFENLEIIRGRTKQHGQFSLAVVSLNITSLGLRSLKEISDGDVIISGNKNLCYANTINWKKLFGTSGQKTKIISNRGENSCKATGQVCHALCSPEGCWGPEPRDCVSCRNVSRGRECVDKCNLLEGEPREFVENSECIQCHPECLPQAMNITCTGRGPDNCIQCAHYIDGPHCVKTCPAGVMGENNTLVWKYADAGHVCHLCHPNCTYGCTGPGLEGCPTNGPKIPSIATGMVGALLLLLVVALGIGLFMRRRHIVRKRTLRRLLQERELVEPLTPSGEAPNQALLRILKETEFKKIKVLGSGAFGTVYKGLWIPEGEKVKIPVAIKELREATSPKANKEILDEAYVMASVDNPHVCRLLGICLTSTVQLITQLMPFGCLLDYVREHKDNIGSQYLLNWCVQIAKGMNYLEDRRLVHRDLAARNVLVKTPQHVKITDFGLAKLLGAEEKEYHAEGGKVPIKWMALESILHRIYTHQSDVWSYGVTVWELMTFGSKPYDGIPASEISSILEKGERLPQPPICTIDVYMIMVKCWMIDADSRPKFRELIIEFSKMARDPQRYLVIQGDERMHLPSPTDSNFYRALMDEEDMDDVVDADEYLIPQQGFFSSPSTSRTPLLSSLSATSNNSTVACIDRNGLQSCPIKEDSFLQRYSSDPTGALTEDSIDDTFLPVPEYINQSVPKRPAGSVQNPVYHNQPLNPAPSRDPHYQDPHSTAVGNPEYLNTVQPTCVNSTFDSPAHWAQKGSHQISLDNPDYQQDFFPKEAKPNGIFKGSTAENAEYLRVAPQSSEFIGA

Row | Structure (SMILES) | Biochem EGFR %Inhibition [1] [%] | Met Kinase % Inhibition [2] [%]
1 | CCc1ccc(C=C2C(=O)Nc3c(Br)cc(Br)cc32)s1 [10726/A10] | 26.5 | 58.9
2 | CNS(=O)(=O)c1ccc2c(c1)C(=Cc1c(Br)cnn1-c1ccc(Cl)cc1)C(=O)N2 [10725/D10] | 11.7 | 27.8
3 | O=C1Nc2ccc(CCCl)cc2C1=Cc1c(Br)cnn1-c1ccc(Cl)cc1 [10725/G10] | 17.8 | 27.7
4 | CNS(=O)(=O)c1ccc2c(c1)C(=Cc1c(O)cc(C)cc1OC)C(=O)N2 [10725/D06] | -26.4 | 24.7
5 | COc1cc(C)cc(O)c1C=C1C(=O)Nc2ccc(S(=O)(=O)N3CCOCC3)cc21 [10725/F06] | -37.8 | 41.8
6 | CCc1ccc(C=C2C(=O)Nc3ccc(I)cc32)s1 [10726/B10] | 40.8 | 58.5
7 | Cc1[nH]c(C=C2C(=O)Nc3ccc(S(=O)(=O)N4CCOCC4)cc32)c(Br)c1Br [10717/F11] | 91.2 | 81.5
8 | Cc1c(Br)ccc2c1C(=Cc1c[nH]cn1)C(=O)N2 [10725/C11] | -22.1 | 48.4
9 | Cc1cc(C=C2C(=O)Nc3c(Br)cc(Br)cc32)cc(C(C)(C)C)c1O [10726/A04] | 40.8 | 85.7
10 | Cc1c(Br)ccc2c1C(=Cc1sccc1Br)C(=O)N2 [10725/C02] | -43.4 | 6.3
11 | Cc1cn(C)cc1C=C1C(=O)Nc2c(Br)cc(Br)cc21 [10726/A06] | 0.2 | 54.7
12 | CCOC(=O)c1[nH]c(C=C2C(=O)Nc3ccc(Br)c(C)c32)c(C(=O)OC)c1C [10726/C03] | 29.8 | 38.9
13 | O=C1Nc2ccc(S(=O)(=O)N3CCOCC3)cc2C1=Cc1c[nH]cn1 [10725/F11] | 20.8 | 25.7
14 | COc1cc(C)cc(O)c1C=C1C(=O)Nc2ccc(Br)c(C)c21 [10725/C06] | -11.5 | 54.7
15 | O=C1Nc2ccc(F)cc2C1=C1C(=O)Nc2ccc(I)cc21 [10726/B08] | 23.6 | 60.2
16 | Cc1cn(C)cc1C=C1C(=O)Nc2ccc(Br)c(C)c21 [10726/C06] | -0.9 | 42.6
17 | CNS(=O)(=O)c1ccc2c(c1)C(=Cc1c[nH]cn1)C(=O)N2 [10725/D11] | -12.5 | 100.5
18 | Cc1ccc(C=C2C(=O)Nc3ccc(S(=O)(=O)N4CCOCC4)cc32)o1 [10725/F04] | -49.6 | 38.1
19 | CNS(=O)(=O)c1ccc2c(c1)C(=Cc1sccc1Br)C(=O)N2 [10725/D02] | -23.9 | 14.0
20 | O=C1Nc2c(Br)cc(Br)cc2C1=Cc1ccc(F)cc1 [10717/A05] | 16.6 | 35.6
21 | CNS(=O)(=O)c1ccc2c(c1)C(=Cc1ccc(N3CCOCC3)cc1)C(=O)N2 [10725/D08] | 20.0 | 39.2
22 | Cc1cc(C=C2C(=O)Nc3ccc(S(=O)(=O)N4CCOCC4)cc32)[nH]n1 [10725/F05] | -18.9 | 15.5
23 | Cc1cc(C=C2C(=O)Nc3ccc(Br)c(C)c32)cc(C(C)(C)C)c1O [10726/C04] | 58.4 | 91.7
24 | Cc1c(Br)ccc2c1C(=Cc1ccc(Br)o1)C(=O)N2 [10726/C05] | 16.7 | 58.0
25 | CNS(=O)(=O)c1ccc2c(c1)C(=Cc1[nH]c(Cl)c(CC(=O)OC)c1C(=O)OC)C(=O)N2 [10725/D09] | 4.3 | 28.0
26 | O=C1Nc2c(Br)cc(Br)cc2C1=Cc1ccc(Br)o1 [10726/A05] | -28.4 | 75.2
27 | O=C1Nc2c(Br)cc(Br)cc2C1=Cc1cc(O)c2c(c1O)CCCC2 [10726/A07] | 88.7 | 101.4
28 | CNS(=O)(=O)c1ccc2c(c1)C(=Cc1ccc(N3CCN(C=O)CC3)cc1)C(=O)N2 [10725/D07] | -25.8 | 37.0
29 | O=C1Nc2ccc(S(=O)(=O)Nc3ccc(C(F)(F)F)cc3)cc2C1=Cc1sccc1Br [10725/E02] | 4.3 | 40.2
30 | Cc1c(Br)ccc2c1C(=Cc1ccc(N3CCN(C=O)CC3)cc1)C(=O)N2 [10725/C07] | -16.5 | 38.8
